Publication PMC4303209, “A novel phosphatidylinositol 3-kinase (PI3K) inhibitor directs a potent FOXO-dependent, p53-independent cell cycle arrest phenotype characterized by the differential induction of a subset of FOXO-regulated genes” (Breast Cancer Research : BCR, 2014)

Tested on: MCF-7 breast cancer cells
Assay: Microarray gene expression analysis (Agilent whole human genome 4 x 44K; compound vs DMSO, LIMMA log2 fold change)
Type: cell-based
Settings: Apoptosis genes

## Cn1ncc2c(N3CCOCC3)nc(-c3cccc(O)c3)nc21 [ETP-45658]
Gene 23421
  ITGB3BP log2FC: 0.773
Gene 23429
  RYBP log2FC: 0.520
Gene 23493
  HEY2 log2FC: -0.060
Gene 23513
  SCRIB log2FC: -0.165
Gene 23529
  CLCF1 log2FC: -0.993
Gene 23532
  PRAME log2FC: -0.401
Gene 23564
  DDAH2 log2FC: 0.126
Gene 23567
  ZNF346 log2FC: 0.167
Gene 23581
  CASP14 log2FC: -0.095
Gene 23636
  NUP62 log2FC: -0.576
Gene 23645
  PPP1R15A log2FC: 1.011
Gene 23746
  AIPL1 log2FC: -0.252
Gene 23770
  FKBP8 log2FC: -0.132
Gene 23786
  BCL2L13 log2FC: 0.179
Gene 23787
  MTCH1 log2FC: 0.077
Gene 25791
  NGEF log2FC: 0.588
Gene 25803
  SPDEF log2FC: -0.326
Gene 25816
  TNFAIP8 log2FC: 0.706
Gene 25824
  PRDX5 log2FC: -0.074
Gene 25855
  BRMS1 log2FC: -0.580
Gene 25942
  SIN3A log2FC: 0.788
Gene 25994
  HIGD1A log2FC: 0.198
Gene 26135
  SERBP1 log2FC: 0.313
Gene 26155
  NOC2L log2FC: -0.773
Gene 26230
  TIAM2 log2FC: 0.410
Gene 26574
  AATF log2FC: -0.362
Gene 26585
  GREM1 log2FC: -0.311
Gene 26586
  CKAP2 log2FC: 0.829
Gene 26999
  CYFIP2 log2FC: -0.154
Gene 27018
  NGFRAP1 log2FC: 0.134
Gene 27063
  ANKRD1 log2FC: 0.342
Gene 27069
  GHITM log2FC: 0.501
Gene 27113
  BBC3 log2FC: 2.148
Gene 27141
  CIDEB log2FC: -0.076
Gene 27165
  GLS2 log2FC: 0.175
Gene 27242
  TNFRSF21 log2FC: -1.178
Gene 27250
  PDCD4 log2FC: 1.281
Gene 27252
  KLHL20 log2FC: 0.174
Gene 27443
  CECR2 log2FC: -0.568
Gene 28988
  DBNL log2FC: -0.399
Gene 28996
  HIPK2 log2FC: -0.166
Gene 29115
  SAP30BP log2FC: -0.314
Gene 29124
  LGALS13 log2FC: -0.151
Gene 29775
  CARD10 log2FC: -0.324
Gene 29843
  SENP1 log2FC: 0.416
Gene 29844
  TFPT log2FC: -0.708
Gene 29944
  PNMA3 log2FC: 0.559
Gene 29979
  UBQLN1 log2FC: 0.311
Gene 30001
  ERO1L log2FC: 0.255
Gene 30011
  SH3KBP1 log2FC: 0.491
Gene 30818
  KCNIP3 log2FC: 0.159
Gene 50484
  RRM2B log2FC: 0.508
Gene 50486
  G0S2 log2FC: -0.063
Gene 50507
  NOX4 log2FC: -0.318
Gene 50515
  CHST11 log2FC: -0.798
Gene 50649
  ARHGEF4 log2FC: 0.114
Gene 50650
  ARHGEF3 log2FC: 0.584
Gene 51022
  GLRX2 log2FC: -0.287
Gene 51065
  RPS27L log2FC: 0.265
Gene 51074
  APIP log2FC: 0.142
Gene 51079
  NDUFA13 log2FC: -0.190
Gene 51083
  GAL log2FC: -0.531
Gene 51100
  SH3GLB1 log2FC: 0.592
Gene 51107
  APH1A log2FC: -0.202
Gene 51118
  UTP11L log2FC: -0.844
Gene 51124
  IER3IP1 log2FC: 0.463
Gene 51129
  ANGPTL4 log2FC: -0.967
Gene 51147
  ING4 log2FC: 1.465
Gene 51176
  LEF1 log2FC: -0.842
Gene 51283
  BFAR log2FC: 0.564
Gene 51316
  PLAC8 log2FC: -0.141
Gene 51330
  TNFRSF12A log2FC: -0.850
Gene 51378
  ANGPT4 log2FC: -0.106
Gene 51428
  DDX41 log2FC: -0.212
Gene 51454
  GULP1 log2FC: 1.616
Gene 51499
  TRIAP1 log2FC: -0.820
Gene 51530
  ZC3HC1 log2FC: 0.230
Gene 51588
  PIAS4 log2FC: -0.216
Gene 51604
  PIGT log2FC: 0.174
Gene 51616
  TAF9B log2FC: 0.427
Gene 51651
  PTRH2 log2FC: -0.336
Gene 51741
  WWOX log2FC: -0.809
Gene 51804
  SIX4 log2FC: 0.564
Gene 53832
  IL20RA log2FC: 0.097
Gene 54205
  CYCS log2FC: -0.446
Gene 54361
  WNT4 log2FC: -0.709
Gene 54431
  DNAJC10 log2FC: 0.727
Gene 54469
  ZFAND6 log2FC: 0.430
Gene 54507
  ADAMTSL4 log2FC: -0.301
Gene 54541
  DDIT4 log2FC: -0.893
Gene 54556
  ING3 log2FC: 0.777
Gene 54700
  RRN3 log2FC: -0.293
Gene 54806
  AHI1 log2FC: 0.585
Gene 54870
  QRICH1 log2FC: -0.061
Gene 54929
  TMEM161A log2FC: -0.567
Gene 55023
  PHIP log2FC: 1.243
Gene 55031
  USP47 log2FC: 0.762
Gene 55074
  OXR1 log2FC: 0.502
Gene 55075
  UACA log2FC: 0.817
Gene 55081
  IFT57 log2FC: 0.552
Gene 55113
  XKR8 log2FC: 0.287
Gene 55164
  SHQ1 log2FC: -0.250
Gene 55179
  FAIM log2FC: 0.209
Gene 55201
  MAP1S log2FC: -0.375
Gene 55210
  ATAD3A log2FC: -0.394
Gene 55240
  STEAP3 log2FC: -0.569
Gene 55288
  RHOT1 log2FC: 0.620
Gene 55312
  RFK log2FC: 0.519
Gene 55486
  PARL log2FC: -0.133
Gene 55504
  TNFRSF19 log2FC: -0.110
Gene 55749
  CCAR1 log2FC: 0.836
Gene 55795
  PCID2 log2FC: 0.322
Gene 55819
  RNF130 log2FC: 0.142
Gene 55840
  EAF2 log2FC: 0.438
Gene 55851
  PSENEN log2FC: -0.304
Gene 55973
  BCAP29 log2FC: 0.449
Gene 56159
  TEX11 log2FC: -0.066
Gene 56259
  CTNNBL1 log2FC: -0.141
Gene 56616
  DIABLO log2FC: -0.193
Gene 56624
  ASAH2 log2FC: -0.191
Gene 56658
  TRIM39 log2FC: -0.084
Gene 56751
  BARHL1 log2FC: -0.269
Gene 56776
  FMN2 log2FC: 0.105
Gene 56848
  SPHK2 log2FC: -0.628
Gene 56892
  C8orf4 log2FC: -0.080
Gene 56917
  MEIS3 log2FC: -0.061
Gene 56940
  DUSP22 log2FC: 0.419
Gene 57019
  CIAPIN1 log2FC: -0.388
Gene 57060
  PCBP4 log2FC: -0.519
Gene 57099
  AVEN log2FC: -0.627
Gene 57118
  CAMK1D log2FC: -0.141
Gene 57142
  RTN4 log2FC: 0.129
Gene 57144
  PAK7 log2FC: 0.396
Gene 57448
  BIRC6 log2FC: 0.155
Gene 57551
  TAOK1 log2FC: 0.386
Gene 57556
  SEMA6A log2FC: -0.108
Gene 57630
  SH3RF1 log2FC: -0.399
Gene 57646
  USP28 log2FC: 0.268
Gene 57678
  GPAM log2FC: 0.310
Gene 57680
  CHD8 log2FC: -0.199
Gene 57761
  TRIB3 log2FC: 0.343
Gene 58157
  NGB log2FC: -0.410
Gene 58517
  RBM25 log2FC: 0.406
Gene 60485
  SAV1 log2FC: 0.676
Gene 60675
  PROK2 log2FC: -0.050
Gene 63916
  ELMO2 log2FC: 0.581
Gene 63924
  CIDEC log2FC: 0.346
Gene 63979
  FIGNL1 log2FC: -0.206
Gene 64065
  PERP log2FC: 0.653
Gene 64112
  MOAP1 log2FC: 1.318
Gene 64121
  RRAGC log2FC: 1.860
Gene 64135
  IFIH1 log2FC: 0.885
Gene 64393
  ZMAT3 log2FC: -0.105
Gene 64422
  ATG3 log2FC: 0.283
Gene 64426
  SUDS3 log2FC: -0.126
Gene 64780
  MICAL1 log2FC: -0.454
Gene 64857
  PLEKHG2 log2FC: -0.832
